Reference: patent US11185077B2, “Attractants for rodents” (priority 2016, dated 2021)

How the values were obtained:
house mice, Mus musculus = experiment: Laboratory T-tube bioassay: behavioral responses of mice (first choice, time spent); type: in vivo; conditions: male mice
From the text: A laboratory experimental apparatus was constructed to test the behavioral responses of mice to the compositions described herein. The experimental design is depicted in FIG. 4 and includes three clear Plexiglas chambers: release chamber (1: 40 cm×20 cm×30 cm for placement of a mouse at the onset of a bioassay), and response chambers (3a and 3b: each 60 cm×30 cm×40 cm) interconnected by a Pyrex glass T-tube (2; stem: 65 cm long, side arms: 45 cm long, all 10 cm in diameter). Each response chamber housed a test stimulus in a Petri dish (4a, 4b; 3 cm diam.). For each replicate, a single mouse was deprived of food, but not water, for 4-6 h before being placed into chamber 1, which was illuminated by dim red light to facilitate observations of the mouse's position. The mouse was allowed to enter the stem of the T-tube (2) on its own accord in response to test stimuli, which were randomly assigned to response chamber 3a or 3b.
Both response chambers were fitted with a Petri dish (4a, 4b) containing a Whatman #1 filter paper disk (25 mm diam.) treated with a randomly assigned treatment stimulus or control stimulus. For each bioassay, a single mouse was tested and the following data were recorded: (1) the treatment or control chamber the mouse entered first with all four paws (“first-choice data”); and (2) the position of the mouse at each of 30 30-sec intervals after its first entry into the T-tube. Position data were then used to calculate the proportion of time a mouse spent in the treatment or control chamber (“time-spent data”).
Following each replicate, the chambers and T-tube were cleaned with a Percept® disinfectant detergent (Virox Technologies Inc. Mississaugua ON L5N 5M4, Canada) and wiped with 70% ethanol.
First-choice data and the time spent in a trap box quadrant were analyzed using a χ^2 test with Yates' correction for continuity (α=0.05) and the Student's t-test (α=0.05), respectively.
In Experiment 5, the laboratory experimental design of FIG. 4 was used to evaluate the responses of female mice to synthetic androstenone. For Experiment 5, the treatment stimulus consisted of filter paper treated with 4 μg of synthetic androstenone (see Experiments 1 and 2), and the control stimulus consisted of filter paper treated with the 50 μl of ether without androstenone.
In Experiment 6, the laboratory experimental design of FIG. 4 was used to evaluate the responses of male mice to blends of synthetic progesterone and estrogen. For Experiment 6, the treatment stimulus consisted of filter paper treated with a 4-μg blend of the synthetic hormones progesterone and estrogen formulated in 50 μl of ether at a ratio of 100:1 and a control stimulus which consisted of filter paper treated with 50 μl of ether.
In Experiments 9 to 11, the laboratory experimental design of FIG. 4 was used to evaluate the responses of male mice to synthetic progesterone and estrogen. For the Experiments, the treatment stimulus consisted of filter paper treated with a blend of the synthetic progesterone (50 ng) and estrogen (25 ng) (hereinafter “synthetic hormone blend”) (Experiment 9), progesterone alone (75 ng) (Experiment 10) or estrogen alone (75 ng) (Experiment 11) formulated in 50 μl ether. The control stimulus consisted of filter paper treated with 50 μl of ether for each of Experiments 9 to 11.
Experiment 12 used the laboratory experimental apparatus of FIG. 4 to test choices of female mice between filter paper treated with 75 ng of synthetic testosterone (the treatment stimulus) formulated in 50 μl of ether and control filter paper treated with 50 μl of ether. Experiment 13 was identical to Experiment 12 except that the treatment stimulus consisted of filter paper treated with 75 ng of synthetic androstenone.

[1] = tested on: wild house mice, Mus musculus; experiment: Field experiments with paired trap boxes: trap captures of wild mice; type: in vivo
[2] = Experiment 11, estrogen alone (75 ng)
[3] = Experiment 10, progesterone alone (75 ng)
[4] = Experiment 22, 750 ng of progesterone

| SMILES | first entry into baited chamber vs control chamber (house mice, Mus musculus; [2]) | responsiveness of male mice compared with progesterone (house mice, Mus musculus; [2]) | time spent in treatment chamber vs control chamber (house mice, Mus musculus; [2]) | captures of wild mice vs control traps ([1]; Experiment 23, 750 ng of estradiol (estrogen)) | first entry into treated chamber vs control chamber (house mice, Mus musculus; [3]) | responses of male mice compared with the blend (house mice, Mus musculus; [3]) | time spent in treated chamber vs control chamber (house mice, Mus musculus; [3]) | captures of adult male mice vs control traps [1, 4] | captures of juvenile male mice vs control traps [1, 4] |
| --- | --- | --- | --- | --- | --- | --- | --- | --- | --- |
| C[C@]12CC[C@@H]3c4ccc(O)cc4CC[C@H]3[C@@H]1CC[C@@H]2O [estrogen, (8R,9S,13S,14S,17S)-13-methyl-6,7,8,9,11,12,14,15,16,17-decahydrocyclopenta[a]phenanthrene-3,17-diol] | significantly more often | more responsive to estrogen than to progesterone | significantly more time | as ineffective as control traps | – | – | – | – | – |
| CC(=O)[C@H]1CC[C@H]2[C@@H]3CCC4=CC(=O)CC[C@]4(C)[C@H]3CC[C@]12C [progesterone] | – | – | – | – | did not significantly choose to first enter | less pronounced | significantly more time | significantly more | significantly more |
